The source of these data is patent publication US9663508B2, “Biaryl acyl-sulfonamide compounds as sodium channel inhibitors” (AMGEN INC., priority 2013, dated 2017).

The IC50 is the concentration that gives 50% inhibition. A lower IC50 goes with higher potency.

Each structure is given as a SMILES string.

The target of this test is human Nav1.7 (Homo sapiens (Human), UniProt Q15858). Briefly: Nav 1.7 in vitro PatchXpress (PX) assay. The class given is cell-based. The note with it: in-vitro Nav 1.7 PX data.
human Nav1.7, sequence (Q15858 whole entry): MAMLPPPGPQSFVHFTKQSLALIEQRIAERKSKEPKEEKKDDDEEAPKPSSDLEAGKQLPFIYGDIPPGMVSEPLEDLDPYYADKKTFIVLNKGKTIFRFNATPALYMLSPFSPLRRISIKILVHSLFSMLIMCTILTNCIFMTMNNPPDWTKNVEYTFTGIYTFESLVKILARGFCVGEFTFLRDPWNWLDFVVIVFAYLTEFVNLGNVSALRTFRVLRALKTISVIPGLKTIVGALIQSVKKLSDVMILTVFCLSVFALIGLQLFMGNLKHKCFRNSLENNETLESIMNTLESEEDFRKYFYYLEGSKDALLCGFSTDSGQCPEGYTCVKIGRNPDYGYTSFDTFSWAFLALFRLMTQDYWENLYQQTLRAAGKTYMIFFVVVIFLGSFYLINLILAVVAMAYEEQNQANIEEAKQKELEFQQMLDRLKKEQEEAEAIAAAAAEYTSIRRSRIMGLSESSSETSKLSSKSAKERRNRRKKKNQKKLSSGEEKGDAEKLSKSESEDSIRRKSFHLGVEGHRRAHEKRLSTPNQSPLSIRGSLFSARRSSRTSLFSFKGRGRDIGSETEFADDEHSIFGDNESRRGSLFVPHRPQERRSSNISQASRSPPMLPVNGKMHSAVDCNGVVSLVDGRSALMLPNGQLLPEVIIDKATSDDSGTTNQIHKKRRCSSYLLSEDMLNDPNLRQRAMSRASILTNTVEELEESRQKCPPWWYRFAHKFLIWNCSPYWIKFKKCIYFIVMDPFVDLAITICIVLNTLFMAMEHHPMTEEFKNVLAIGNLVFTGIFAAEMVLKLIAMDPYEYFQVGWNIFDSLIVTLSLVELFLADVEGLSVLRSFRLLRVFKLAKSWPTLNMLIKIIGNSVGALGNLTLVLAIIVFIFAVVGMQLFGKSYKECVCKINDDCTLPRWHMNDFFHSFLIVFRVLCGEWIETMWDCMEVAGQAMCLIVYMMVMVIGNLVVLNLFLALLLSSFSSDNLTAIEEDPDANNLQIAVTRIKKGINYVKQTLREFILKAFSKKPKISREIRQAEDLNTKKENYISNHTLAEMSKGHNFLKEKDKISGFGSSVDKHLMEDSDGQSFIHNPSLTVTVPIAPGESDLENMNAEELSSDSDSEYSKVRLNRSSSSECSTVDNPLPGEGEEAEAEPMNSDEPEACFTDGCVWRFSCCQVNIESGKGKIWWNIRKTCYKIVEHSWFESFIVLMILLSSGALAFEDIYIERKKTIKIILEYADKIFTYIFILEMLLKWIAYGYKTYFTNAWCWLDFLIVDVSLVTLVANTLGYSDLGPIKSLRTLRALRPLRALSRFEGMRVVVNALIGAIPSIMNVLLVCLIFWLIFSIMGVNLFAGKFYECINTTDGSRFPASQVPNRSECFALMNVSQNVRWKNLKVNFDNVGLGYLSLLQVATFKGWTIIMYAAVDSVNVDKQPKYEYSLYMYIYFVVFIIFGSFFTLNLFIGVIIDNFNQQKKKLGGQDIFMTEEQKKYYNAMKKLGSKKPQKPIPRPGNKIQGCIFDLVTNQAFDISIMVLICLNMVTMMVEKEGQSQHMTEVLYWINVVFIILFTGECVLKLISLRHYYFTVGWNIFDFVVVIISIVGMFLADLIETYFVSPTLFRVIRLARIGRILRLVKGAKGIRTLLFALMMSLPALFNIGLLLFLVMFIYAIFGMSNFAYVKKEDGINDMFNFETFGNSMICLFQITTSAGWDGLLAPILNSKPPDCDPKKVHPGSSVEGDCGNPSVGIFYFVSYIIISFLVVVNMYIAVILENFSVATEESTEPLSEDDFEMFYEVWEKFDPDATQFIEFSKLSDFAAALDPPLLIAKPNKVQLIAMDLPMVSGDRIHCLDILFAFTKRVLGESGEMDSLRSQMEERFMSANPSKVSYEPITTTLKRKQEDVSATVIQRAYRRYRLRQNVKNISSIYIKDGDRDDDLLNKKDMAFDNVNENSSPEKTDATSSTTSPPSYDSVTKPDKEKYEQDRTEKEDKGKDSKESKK
`CC[C@@H](Oc1ncc(-c2cc(F)c(C(=O)NS(C)(=O)=O)cc2OC)cc1Cl)C(F)(F)F` [Example 732, 4-(5-chloro-6-(((1R)-1-(trifluoromethyl)propyl)oxy)-3-pyridinyl)-2-fluoro-5-methoxy-N-(methylsulfonyl)benzamide, 4-(5-chloro-6-(((1S)-1-(trifluoromethyl)propyl)oxy)-3-pyridinyl)-2-fluoro-5-methoxy-N-(methylsulfonyl)benzamide] returned an IC50 of 0.104 µM.

With `COc1cc(C(=O)NS(C)(=O)=O)c(F)cc1-c1cnc(O[C@@H]2CC[C@H]2C)c(Cl)c1` [Example 733, 4-(5-chloro-6-(((1R,2R)-2-methylcyclobutyl)oxy)-3-pyridinyl)-2-fluoro-5-methoxy-N-(methylsulfonyl)benzamide, 4-(5-chloro-6-(((1S,2S)-2-methylcyclobutyl)oxy)-3-pyridinyl)-2-fluoro-5-methoxy-N-(methylsulfonyl)benzamide], the midpoint of inhibition, the IC50, lay at 0.22 µM.

The compound `COc1cc(C(=O)NS(C)(=O)=O)c(F)cc1-c1cnc(OC2(C(F)(F)F)CCC2)c(Cl)c1` [Example 734, 4-(5-chloro-6-((1-(trifluoromethyl)cyclobutyl)oxy)-3-pyridinyl)-2-fluoro-5-methoxy-N-(methylsulfonyl)benzamide] had an IC50 of 0.0587 µM.

Compound `COc1cc(C(=O)NS(C)(=O)=O)c(F)cc1-c1cnc(O[C@H]2C[C@H](C)C2)c(Cl)c1` [Example 735, 4-(5-chloro-6-((trans-3-methylcyclobutyl)oxy)-3-pyridinyl)-2-fluoro-5-methoxy-N-(methylsulfonyl)benzamide] returned an IC50 of 0.0591 µM.

The compound `CC[C@@H](Oc1ncc(-c2cc(F)c(C(=O)NS(C)(=O)=O)cc2OC)cc1Cl)C(F)(F)F` [Example 736, 4-(5-chloro-6-(((1R)-1-(trifluoromethyl)propyl)oxy)-3-pyridinyl)-2-fluoro-5-methoxy-N-(methylsulfonyl)benzamide] returned a 50% inhibitory concentration (IC50) of 0.084 µM.

`COc1cc(C(=O)NS(C)(=O)=O)c(F)cc1-c1cnc(Oc2c(Cl)cc(F)cc2Cl)c(Cl)c1` [Example 737, 4-(5-chloro-6-(2,6-dichloro-4-fluorophenoxy)-3-pyridinyl)-2-fluoro-5-methoxy-N-(methylsulfonyl)benzamide]: the IC50 came out at 0.1 µM.

`COc1cc(C(=O)NS(C)(=O)=O)c(F)cc1-c1cnc(Oc2ccc(Cl)cc2Cl)c(Cl)c1` [Example 738, 4-(5-chloro-6-(2,4-dichlorophenoxy)-3-pyridinyl)-2-fluoro-5-methoxy-N-(methylsulfonyl)benzamide] gave an IC50 of 0.037 µM.

`COc1cc(C(=O)NS(C)(=O)=O)c(F)cc1-c1cnc(Oc2cc(Cl)c(Cl)cc2Cl)c(Cl)c1` [Example 739, 4-(5-chloro-6-(2,4,5-trichlorophenoxy)-3-pyridinyl)-2-fluoro-5-methoxy-N-(methylsulfonyl)benzamide] gave a concentration for half-maximal inhibition (IC50) of 0.051 µM.

Compound `COc1cc(C(=O)NS(C)(=O)=O)c(F)cc1-c1cnc(Oc2cc(F)cc(F)c2)c(Cl)c1` [Example 740, 4-(5-chloro-6-(3,5-difluorophenoxy)-3-pyridinyl)-2-fluoro-5-methoxy-N-(methylsulfonyl)benzamide] showed a half-inhibitory concentration (IC50) of 0.087 µM.

Consider `COc1cc(C(=O)NS(C)(=O)=O)c(F)cc1-c1cnc(Oc2ccc(F)c(Cl)c2)c(Cl)c1` [Example 741, 4-(5-chloro-6-(3-chloro-4-fluorophenoxy)-3-pyridinyl)-2-fluoro-5-methoxy-N-(methylsulfonyl)benzamide], for which half-maximal inhibition (IC50) was put at 0.056 µM.

For the compound `COc1cc(C(=O)NS(C)(=O)=O)c(F)cc1-c1cnc(Oc2ccc(F)cc2F)c(Cl)c1` [Example 742, 4-(5-chloro-6-(2,4-difluorophenoxy)-3-pyridinyl)-2-fluoro-5-methoxy-N-(methylsulfonyl)benzamide], the midpoint of inhibition, the IC50, lay at 0.094 µM.

Compound `COc1cc(C(=O)NS(C)(=O)=O)c(F)cc1-c1cnc(Oc2cc(F)ccc2C)c(Cl)c1` [Example 743, 4-(5-chloro-6-(5-fluoro-2-methylphenoxy)-3-pyridinyl)-2-fluoro-5-methoxy-N-(methylsulfonyl)benzamide] had a half-maximal inhibitory concentration (IC50) of 0.0962 µM.

`COc1cc(C(=O)NS(C)(=O)=O)c(F)cc1-c1cnc(Oc2c(F)ccc(Cl)c2F)c(Cl)c1` [Example 744, 4-(5-chloro-6-(3-chloro-2,6-difluorophenoxy)-3-pyridinyl)-2-fluoro-5-methoxy-N-(methylsulfonyl)benzamide] registered an IC50 of 0.0678 µM.

For the compound `COc1cc(C(=O)NS(C)(=O)=O)c(F)cc1-c1cnc(Oc2cccc(Cl)c2F)c(Cl)c1` [Example 745, 4-(5-chloro-6-(3-chloro-2-fluorophenoxy)-3-pyridinyl)-2-fluoro-5-methoxy-N-(methylsulfonyl)benzamide], the 50% inhibitory concentration (IC50) was determined as 0.0725 µM.

As to `COc1cc(C(=O)NS(C)(=O)=O)c(F)cc1-c1cnc(Oc2ccc(C)c(F)c2F)c(Cl)c1` [Example 746, 4-(5-chloro-6-(2,3-difluoro-4-methylphenoxy)-3-pyridinyl)-2-fluoro-5-methoxy-N-(methylsulfonyl)benzamide], the 50% inhibitory concentration (IC50) is 0.0628 µM.

In turn, `COc1cc(C(=O)NS(C)(=O)=O)c(F)cc1-c1cnc(Oc2cc(Cl)ccc2F)c(Cl)c1` [Example 747, 4-(5-chloro-6-(5-chloro-2-fluorophenoxy)-3-pyridinyl)-2-fluoro-5-methoxy-N-(methylsulfonyl)benzamide] showed a concentration for half-maximal inhibition (IC50) of 0.0836 µM.

As to `COc1cc(C(=O)NS(C)(=O)=O)c(F)cc1-c1cnc(Oc2c(C)cccc2Cl)c(Cl)c1` [Example 748, 4-(5-chloro-6-(2-chloro-6-methylphenoxy)-3-pyridinyl)-2-fluoro-5-methoxy-N-(methylsulfonyl)benzamide], the IC50 is 0.0764 µM.

`COc1cc(C(=O)NS(C)(=O)=O)c(F)cc1-c1cnc(O[C@H](C)c2ccccc2)c(Cl)c1` [Example 749, 4-(5-chloro-6-((1R)-1-phenylethoxy)-3-pyridinyl)-2-fluoro-5-methoxy-N-(methylsulfonyl)benzamide] came in with an IC50 of 0.0936 µM.

Consider `COc1cc(C(=O)NS(C)(=O)=O)c(F)cc1-c1cnc(OCc2ccc(Cl)cc2)c(Cl)c1` [Example 750, 4-(5-chloro-6-((4-chlorobenzyl)oxy)-3-pyridinyl)-2-fluoro-5-methoxy-N-(methylsulfonyl)benzamide], for which inhibition was half-maximal at 0.0747 µM (IC50).

As for `COc1cc(C(=O)NS(C)(=O)=O)c(F)cc1-c1cnc(Oc2ccc(C)c(Cl)c2)c(Cl)c1` [Example 751, 4-(5-chloro-6-(3-chloro-4-methylphenoxy)-3-pyridinyl)-2-fluoro-5-methoxy-N-(methylsulfonyl)benzamide], the IC50 turned out to be 0.0983 µM.

With `COc1cc(C(=O)NS(C)(=O)=O)c(F)cc1-c1cnc(Oc2cc(C)ccc2Cl)c(Cl)c1` [Example 752, 4-(5-chloro-6-(2-chloro-5-methylphenoxy)-3-pyridinyl)-2-fluoro-5-methoxy-N-(methylsulfonyl)benzamide], inhibition was half-maximal at 0.0421 µM (IC50).

Take `COc1cc(C(=O)NS(C)(=O)=O)c(F)cc1-c1cnc(Oc2ccc(Cl)cc2F)c(Cl)c1` [Example 753, 4-(5-chloro-6-(4-chloro-2-fluorophenoxy)-3-pyridinyl)-2-fluoro-5-methoxy-N-(methylsulfonyl)benzamide]: half-maximal inhibition (IC50) required 0.0369 µM.

For the compound `COc1cc(C(=O)NS(C)(=O)=O)c(F)cc1-c1cnc(Oc2ccc(F)c(C)c2)c(Cl)c1` [Example 754, 4-(5-chloro-6-(4-fluoro-3-methylphenoxy)-3-pyridinyl)-2-fluoro-5-methoxy-N-(methylsulfonyl)benzamide], the IC50 was 0.0922 µM.

With `COc1cc(C(=O)NS(C)(=O)=O)c(F)cc1-c1cnc(Oc2ccc(Cl)c(Cl)c2)c(Cl)c1` [Example 755, 4-(5-chloro-6-(3,4-dichlorophenoxy)-3-pyridinyl)-2-fluoro-5-methoxy-N-(methylsulfonyl)benzamide], the 50% inhibitory concentration (IC50) was determined as 0.0515 µM.

Consider `COc1cc(C(=O)NS(C)(=O)=O)c(F)cc1-c1cnc(O[C@H](C)Cc2ccccc2)c(Cl)c1` [Example 756, 4-(5-chloro-6-((1R)-1-methyl-2-phenylethoxy)-3-pyridinyl)-2-fluoro-5-methoxy-N-(methylsulfonyl)benzamide], for which inhibition was half-maximal at 0.0553 µM (IC50).

`COc1cc(C(=O)NS(C)(=O)=O)c(F)cc1-c1cnc(Oc2ccc(F)c3c2CCC3)c(Cl)c1` [Example 757, 4-(5-chloro-6-((7-fluoro-2,3-dihydro-1H-inden-4-yl)oxy)-3-pyridinyl)-2-fluoro-5-methoxy-N-(methylsulfonyl)benzamide] gave a 50% inhibitory concentration (IC50) of 0.0477 µM.

As for `COc1cc(C(=O)NS(C)(=O)=O)c(F)cc1-c1cnc(O[C@@H](C)Cc2ccccc2)c(Cl)c1` [Example 758, 4-(5-chloro-6-((1S)-1-methyl-2-phenylethoxy)-3-pyridinyl)-2-fluoro-5-methoxy-N-(methylsulfonyl)benzamide], the IC50 came to 0.0838 µM.

`COc1cc(C(=O)NS(C)(=O)=O)c(F)cc1-c1cnc(Oc2c(F)ccc(C)c2F)c(Cl)c1` [Example 759, 4-(5-chloro-6-(2,6-difluoro-3-methylphenoxy)-3-pyridinyl)-2-fluoro-5-methoxy-N-(methylsulfonyl)benzamide] showed an IC50 of 0.0954 µM.

`COc1cc(C(=O)NS(C)(=O)=O)c(F)cc1-c1cnc(Oc2cccc(C)c2Cl)c(Cl)c1` [Example 760, 4-(5-chloro-6-(2-chloro-3-methylphenoxy)-3-pyridinyl)-2-fluoro-5-methoxy-N-(methylsulfonyl)benzamide] returned a half-maximal inhibitory concentration (IC50) of 0.0624 µM.

In turn, `COc1cc(C(=O)NS(C)(=O)=O)c(F)cc1-c1cnc(O[C@H](C)c2ccc(F)cc2Cl)c(Cl)c1` [Example 761, 4-(5-chloro-6-((1R)-1-(2-chloro-4-fluorophenyl)ethoxy)-3-pyridinyl)-2-fluoro-5-methoxy-N-(methylsulfonyl)benzamide] registered a 50% inhibitory concentration (IC50) of 0.0821 µM.

As for `COc1cc(C(=O)NS(C)(=O)=O)c(F)cc1-c1cnc(Oc2c(Cl)ccc(C)c2F)c(Cl)c1` [Example 762, 4-(5-chloro-6-(6-chloro-2-fluoro-3-methylphenoxy)-3-pyridinyl)-2-fluoro-5-methoxy-N-(methylsulfonyl)benzamide], inhibition was half-maximal at 0.0752 µM (IC50).

`COc1cc(C(=O)NS(C)(=O)=O)c(F)cc1-c1cnc(Oc2cc(F)c(Cl)c(F)c2)c(Cl)c1` [Example 763, 4-(5-chloro-6-(4-chloro-3,5-difluorophenoxy)-3-pyridinyl)-2-fluoro-5-methoxy-N-(methylsulfonyl)benzamide] displayed an IC50 of 0.0471 µM.
